According to article PMC4941420, “A Rational Approach for the Identification of Non-Hydroxamate HDAC6-Selective Inhibitors” (Scientific Reports, 2016):

Columns and labels:
HeLa cells = test: Cytotoxicity XTT, HeLa; format: cell-based, human; settings: 72 h, mean ± SD of 3 independent experiments in triplicate, read-out: cytotoxic IC50 HeLa
Description: (§1) HeLa and HEK 293 cells (ATCC CRL-1573) were cultured as described above and seeded into 96-well plates at 400 cells/well. Test and standard compounds were added to plate wells in triplicate (0.05% DMSO in culture medium) in a range of six concentrations. Following 72 h of incubation, […] of an activated XTT solution was added to the cells (1 mg/mL). The absorbance was measured at 450 nm after 2 h incubation at 37 °C. The growth of the compound-treated cells was compared with the growth of vehicle-treated control cells. IC50 values were calculated with GraphPad Prism 6.0.

HEK 293 cells = test: Cytotoxicity XTT, HEK 293; format: cell-based; settings: 72 h, mean ± SD of 3 independent experiments in triplicate, read-out: cytotoxic IC50 HEK 293
Description: as §1

[1] = test system: α-tubulin acetylation in HeLa cells; test: Acetyl-α-tubulin sandwich ELISA in HeLa cells; format: cell-based, human; settings: 25 μM, 48 h
Description: The acetyl-α-tubulin sandwich ELISA Kit (Pathscan® #7204, Cell Signalling) was used to determine tubulin acetylation levels, and Western blotting was used to evaluate histone H4 acetylation, both methods applied to lysates of treated and non-treated HeLa cells (ATCC CCL-2). Cells were cultured in DMEM medium, 4.5 g/L glucose, L-glutamine (Invitrogen), supplemented with 10% heat-inactivated fetal bovine serum (FBS, Biowest), 100 units/mL penicillin, and 100 μg/mL streptomycin, and 1% non-essential amino acids (Invitrogen) at 37 °C with 5% CO2. Prior to ELISA experiments, cells were seeded into 6-well plates at 150,000 cells/well and transfected with the HDAC6-GFP construct (pEGFP.N1-HDAC6, Addgene)[58], using the Lipofectamine 2000 reagent (Invitrogen). Cells were then treated with test compounds, standards or vehicle (0.5% DMSO in culture medium) for 48 h. After the incubation time, cells were washed with cold DPBS (Invitrogen) and lysates were obtained by recovering cells in cold lysis buffer provided in the ELISA kit, supplemented with a protease inhibitor tablet (SigmaFast, Sigma Aldrich). Briefly, cells were harvested in DPBS and centrifuged. The cell pellet was suspended in 100 μL lysis buffer, vortexed, and kept on melting ice for 30 min. Lysates were then obtained by recovering the supernatant after a centrifugation step of 10 min at 11,000 g, 4 °C. Protein concentration was determined by fluorimetry using the Qubit protein assay kit (Invitrogen). Cell lysates were tested at 1 mg/mL following the instructions provided by the ELISA kit manufacturer. For the Western blotting, cells were seeded into 100 mm Petri dishes and treated for 6 h. After the incubation time, cells were washed with cold DPBS (Invitrogen) supplemented with a protease inhibitor tablet (Sigma Fast, Sigma Aldrich), and lysates were obtained by recovering cells in 100 μL cold lysis buffer (10 mM Hepes pH 7.9, 1.5 mM MgCl2, 10 mM KCl, 0.5 mM DTT, 1.5 mM PMSF, 0.2M HCl) the same way as described above. […]

Cytotoxicity XTT, HeLa = format: cell-based, human; settings: human, HeLa cells, mean ± SD of 3 independent experiments in triplicate, read-out: cytotoxic IC50 HeLa
Description: as §1

[2] = Cytotoxicity XTT, HEK 293; format: cell-based; settings: human, HEK 293 cells (ATCC CRL-1573), mean ± SD of 3 independent experiments in triplicate, read-out: cytotoxic IC50 HEK 293
Description: as §1

HDAC6 = settings: cited from earlier work

Compound	IC50 (HeLa cells) [nM]	IC50 (HEK 293 cells) [nM]	tubulin acetylation [1]	IC50 at 72 h (Cytotoxicity XTT, HeLa) [nM]	IC50 at 72 h [2] [nM]	IC50 (HDAC6) [nM]
CC(/C=C/C(=O)NO)=C\[C@@H](C)C(=O)c1ccc(N(C)C)cc1 [Trichostatin A]	1500 ± 300	300 ± 20				
CN1CCc2c(c3ccccc3n2Cc2ccc(C(=O)NO)cc2)C1 [Tubastatin A]			able to induce tubulin acetylation	11200 ± 400	2400 ± 600	[…]
